Experimental data: ChEMBL document CHEMBL1148308, “Peptide-based inhibitors of the hepatitis C virus NS3 protease: structure-activity relationship at the C-terminal position” (J Med Chem, 2004)
Where a SMILES comes first, the peptide text is derived from it. [ ]: non-standard residue; d: D form. Hyp(2-Ph-quinolin-4-yl) = O=C(O)[C@@H]1C[C@@H](Oc2cc(-c3ccccc3)nc3ccccc23)CN1; Ac3c(1R,2S-2-vinyl) = C=C[C@@H]1C[C@]1(N)C(=O)O; Chg = N[C@H](C(=O)O)C1CCCCC1

Test: Inhibitory activity against the hepatitis C virus NS3 protease was determined
Set-up: species or system Hepacivirus hominis

SMILES	IC50 [µM]
CC(=O)N[C@H](C(=O)N[C@H](C(=O)N1C[C@H](OCc2cccc3ccccc23)C[C@H]1C(=O)N[C@]1(C(=O)O)C[C@H]1CCc1ccccc1)C(C)C)C1CCCCC1	22
CC(=O)N[C@H](C(=O)N[C@H](C(=O)N1CC(OCc2cccc3ccccc23)CC1C(=O)N[C@]1(C(=O)O)C[C@H]1C)C(C)C)C1CCCCC1 (single isomer, unassigned)	22
CCC1(CC)C[C@]1(NC(=O)C1CC(OCc2cccc3ccccc23)CN1C(=O)[C@@H](NC(=O)[C@@H](NC(C)=O)C1CCCCC1)C(C)C)C(=O)O (single isomer, unassigned)	310
C=C[C@@H]1C[C@]1(NC(=O)[C@@H]1C[C@@H](Oc2cc(-c3ccccc3)nc3ccccc23)CN1C(=O)[C@@H](NC(=O)[C@@H](NC(C)=O)C1CCCCC1)C(C)C)C(=O)O (Ac-[Chg]V[Hyp(2-Ph-quinolin-4-yl)][Ac3c(1R,2S-2-vinyl)]-OH)	0.019
CC[C@H]1C[C@@]1(NC(=O)C1CC(OCc2cccc3ccccc23)CN1C(=O)[C@@H](NC(=O)[C@@H](NC(C)=O)C1CCCCC1)C(C)C)C(=O)O (single isomer, unassigned)	32
C=C[C@@H]1C[C@]1(NC(=O)C1CC(OCc2cccc3ccccc23)CN1C(=O)[C@@H](NC(=O)[C@@H](NC(C)=O)C1CCCCC1)C(C)C)C(=O)O (single isomer, unassigned)	0.63
CC[C@@H]1C[C@]1(NC(=O)C1CC(OCc2cccc3ccccc23)CN1C(=O)[C@@H](NC(=O)[C@@H](NC(C)=O)C1CCCCC1)C(C)C)C(=O)O (single isomer, unassigned)	4.8
CC(=O)N[C@H](C(=O)N[C@H](C(=O)N1C[C@H](OCc2cccc3ccccc23)C[C@H]1C(=O)N[C@@]1(C(=O)O)C[C@@H]1CCc1ccccc1)C(C)C)C1CCCCC1	90
CC(=O)N[C@H](C(=O)N[C@H](C(=O)N1C[C@H](OCc2cccc3ccccc23)C[C@H]1C(=O)N[C@@]1(C(=O)O)C[C@@H]1C(C)C)C(C)C)C1CCCCC1	640
CCC[C@@H]1C[C@]1(NC(=O)C1CC(OCc2cccc3ccccc23)CN1C(=O)[C@@H](NC(=O)[C@@H](NC(C)=O)C1CCCCC1)C(C)C)C(=O)O (single isomer, unassigned)	5.5
C=C[C@@H]1C[C@]1(NC(=O)C1CC(Oc2ccnc3cc(OC)ccc23)CN1C(=O)[C@@H](NC(=O)[C@@H](NC(C)=O)C1CCCCC1)C(C)C)C(=O)O (single isomer, unassigned)	0.029
CC(=O)N[C@H](C(=O)N[C@H](C(=O)N1C[C@H](OCc2cccc3ccccc23)C[C@H]1C(=O)N[C@]1(C(=O)O)C[C@H]1Cc1ccccc1)C(C)C)C1CCCCC1	14
CC(=O)N[C@H](C(=O)N[C@H](C(=O)N1CC(Oc2cc(-c3ccccc3)nc3ccccc23)CC1C(=O)NC1(C(=O)O)CC1)C(C)C)C1CCCCC1 (single isomer, unassigned)	0.55
COc1ccc2c(OC3CC(C(=O)NC4(C(=O)O)CC4)N(C(=O)[C@@H](NC(=O)[C@@H](NC(C)=O)C4CCCCC4)C(C)C)C3)ccnc2c1 (single isomer, unassigned)	0.85
CC(=O)N[C@H](C(=O)N[C@H](C(=O)N1CC(OCc2cccc3ccccc23)CC1C(=O)NC1(C(=O)O)CC1)C(C)C)C1CCCCC1 (single isomer, unassigned)	14
CCC[C@H]1C[C@@]1(NC(=O)C1CC(OCc2cccc3ccccc23)CN1C(=O)[C@@H](NC(=O)[C@@H](NC(C)=O)C1CCCCC1)C(C)C)C(=O)O (single isomer, unassigned)	41
CC(=O)N[C@H](C(=O)N[C@H](C(=O)N1CC(OCc2ccccc2)CC1C(=O)N[C@@H](CS)C(=O)O)C(C)C)C1CCCCC1 (single isomer, unassigned)	140
CC(=O)N[C@H](C(=O)N[C@H](C(=O)N1C[C@H](OCc2cccc3ccccc23)C[C@H]1C(=O)N[C@@]1(C(=O)O)C[C@@H]1Cc1ccccc1)C(C)C)C1CCCCC1	81
CC(=O)N[C@H](C(=O)N[C@H](C(=O)N1C[C@H](OCc2cccc3ccccc23)C[C@H]1C(=O)N[C@]1(C(=O)O)C[C@H]1C(C)C)C(C)C)C1CCCCC1	5.5
C=C[C@@H]1C[C@]1(NC(=O)C1CC(OCc2ccccc2)CN1C(=O)[C@@H](NC(=O)[C@@H](NC(C)=O)C1CCCCC1)C(C)C)C(=O)O (single isomer, unassigned)	9.7
CCC[C@H](NC(=O)C1CC(OCc2cccc3ccccc23)CN1C(=O)[C@@H](NC(=O)[C@@H](NC(C)=O)C1CCCCC1)C(C)C)C(=O)O (single isomer, unassigned)	23
CC(=O)N[C@H](C(=O)N[C@H](C(=O)N1CC(OCc2cccc3ccccc23)CC1C(=O)N[C@@]1(C(=O)O)C[C@@H]1C)C(C)C)C1CCCCC1 (single isomer, unassigned)	180
CCC[C@H](NC(=O)C1CC(OCc2ccccc2)CN1C(=O)[C@@H](NC(=O)[C@@H](NC(C)=O)C1CCCCC1)C(C)C)C(=O)O (single isomer, unassigned)	530
CC(=O)N[C@H](C(=O)N[C@H](C(=O)N1CC(OCc2ccccc2)CC1C(=O)NC1(C(=O)O)CC1)C(C)C)C1CCCCC1 (single isomer, unassigned)	330
